Laboratory results reported in PubChem BioAssay (NCI).
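Protocol summary: plate cells (96-well), add compound at 5 concentrations, incubate 48 h, interpolate endpoints linearly. GI50 is the concentration that inhibits growth by half. TGI is the concentration that stops growth completely.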

Columns and labels:
Test in all cases: NCI anticancer screen, dose series, 48 h
[1] = test system: HL-60(TB) leukemia
[2] = test system: SNB-19 CNS
[3] = test system: UO-31 renal
[4] = test system: SF-539 CNS
[5] = test system: SK-MEL-28 melanoma
[6] = test system: K-562 leukemia
[7] = test system: MOLT-4 leukemia
[8] = test system: HS 578T breast
[9] = test system: BT-549 breast
[10] = test system: A498 renal
[11] = test system: A549 NSCLC
[12] = test system: RPMI-8226 leukemia
[13] = test system: SNB-75 CNS
[14] = test system: MDA-MB-435
[15] = test system: KM12 colon
[16] = test system: OVCAR-3 ovarian
[17] = test system: MCF7 breast
[18] = test system: OVCAR-4 ovarian
[19] = test system: SF-268 CNS
[20] = test system: UACC-62 melanoma
[21] = test system: CCRF-CEM leukemia
[22] = test system: DU-145 prostate
[23] = test system: EKVX NSCLC
[24] = test system: SW-620 colon
[25] = test system: ACHN renal
[26] = test system: SK-MEL-2 melanoma
[27] = test system: MALME-3M melanoma
[28] = test system: NCI-H226 lung
[29] = test system: PC-3 prostate
[30] = test system: IGROV1 ovarian
[31] = test system: SR leukemia
[32] = test system: HCC-2998 colon
[33] = test system: HOP-92 NSCLC
[34] = test system: RXF 393 renal
[35] = test system: NCI-H460 lung
[36] = test system: SF-295 CNS
[37] = test system: MDA-MB-231 breast
[38] = test system: HOP-62 NSCLC
[39] = test system: 786-0 renal
[40] = test system: T-47D breast
[41] = test system: CAKI-1 renal
[42] = test system: OVCAR-5 ovarian
[43] = test system: SK-MEL-5 melanoma
[44] = test system: M14 melanoma
[45] = test system: OVCAR-8 ovarian
[46] = test system: U251 CNS
[47] = test system: HCT-15 colon
[48] = test system: UACC-257 melanoma
[49] = test system: SN12C renal
[50] = test system: HT29 colon
[51] = test system: SK-OV-3 ovarian
[52] = test system: TK-10 renal

Question: What does the source list for `CC1(C)[C@@H](O)CC[C@]2(C)[C@H]3CC[C@@H]4[C@H]5[C@H](C(=O)/C=C\c6ccccn6)CC[C@]5(O)CC[C@@]4(C)[C@]3(C)CC[C@@H]12`?
Answer: GI50 [1]: 1810 nM; TGI [1]: 5.74 µM; GI50 [2]: 2770 nM; TGI [2]: 10.8 µM; GI50 [3]: 1600 nM; TGI [3]: 3.23 µM; GI50 [4]: 2340 nM; TGI [4]: 6.34 µM; GI50 [5]: 2040 nM; TGI [5]: 4.13 µM; GI50 [6]: 2250 nM; TGI [6]: > 100 µM; GI50 [7]: 2390 nM; TGI [7]: > 100 µM; GI50 [8]: 6.84 µM; TGI [8]: > 100 µM; GI50 [9]: 1960 nM; TGI [9]: 3.57 µM; GI50 [10]: 1660 nM; TGI [10]: 4.33 µM; GI50 [11]: 2770 nM; TGI [11]: 9.37 µM; GI50 [12]: 1760 nM; TGI [12]: 5.35 µM; GI50 [13]: 7.59 µM; TGI [13]: > 100 µM; GI50 [14]: 1760 nM; TGI [14]: 3.75 µM; GI50 [15]: 1850 nM; TGI [15]: 3.96 µM; GI50 [16]: 1870 nM; TGI [16]: 4.89 µM; GI50 [17]: 768 nM; TGI [17]: 4.54 µM; GI50 [18]: 3.92 µM; TGI [18]: 46.4 µM; GI50 [19]: 2380 nM; TGI [19]: 8.44 µM; GI50 [20]: 1740 nM; TGI [20]: 3.95 µM; GI50 [21]: 2060 nM; TGI [21]: 8.51 µM; GI50 [22]: 1750 nM; TGI [22]: 3.52 µM; GI50 [23]: 2620 nM; TGI [23]: 13.3 µM; GI50 [24]: 1930 nM; TGI [24]: 4.85 µM; GI50 [25]: 2330 nM; TGI [25]: 6.28 µM; GI50 [26]: 2610 nM; TGI [26]: 7.18 µM; GI50 [27]: 2160 nM; TGI [27]: 4.78 µM; GI50 [28]: 3.05 µM; TGI [28]: 34.5 µM; GI50 [29]: 2100 nM; TGI [29]: 6.24 µM; GI50 [30]: 1900 nM; TGI [30]: 4.07 µM; GI50 [31]: 1710 nM; TGI [31]: 14.5 µM; GI50 [32]: 1940 nM; TGI [32]: 3.52 µM; GI50 [33]: 1340 nM; TGI [33]: 3.74 µM; GI50 [34]: 1740 nM; TGI [34]: 3.15 µM; GI50 [35]: 1900 nM; TGI [35]: 4.83 µM; GI50 [36]: 2610 nM; TGI [36]: 8.55 µM; GI50 [37]: 3.04 µM; TGI [37]: > 100 µM; GI50 [38]: 1800 nM; TGI [38]: 4.99 µM; GI50 [39]: 2230 nM; TGI [39]: 4.73 µM; GI50 [40]: 1520 nM; TGI [40]: 8.62 µM; GI50 [41]: 2020 nM; TGI [41]: 8.4 µM; GI50 [42]: 2890 nM; TGI [42]: 7.92 µM; GI50 [43]: 1630 nM; TGI [43]: 3.05 µM; GI50 [44]: 2260 nM; TGI [44]: 5.87 µM; GI50 [45]: 3.37 µM; TGI [45]: > 100 µM; GI50 [46]: 1610 nM; TGI [46]: 3.1 µM; GI50 [47]: 1900 nM; TGI [47]: 5.52 µM; GI50 [48]: 3.25 µM; TGI [48]: 39.2 µM; GI50 [49]: 3.08 µM; TGI [49]: > 100 µM; GI50 [50]: 3.33 µM; TGI [50]: > 100 µM; GI50 [51]: 5.35 µM; TGI [51]: 30.7 µM; GI50 [52]: 3.23 µM; TGI [52]: 9.31 µM
